Results from US4407798A, “Cephem compounds” (Fujisawa Pharmaceutical Co., Ltd., priority 1980, dated 1983).

tested on: Escherichia coli 31; experiment: In vitro antimicrobial activity, two-fold agar-plate dilution method (MIC); assay type: cell-based; settings: HI-agar, 37° C., 20 hours
Method: Now in order to show the utility of the object compounds (I), the test data on the in vitro antimicrobial activity of some representative compounds (I) of this invention are shown in the following. Test: In vitro Antimicrobial Activity.
In vitro Antimicrobial activity was determined by the two-fold agar-plate dilution method as described below.
One loopful of an overnight culture of each test strain in Tripticase-soy broth (approximately 10^8 viable cells per ml) was streaked on heart infusion agar (HI-agar) containing graded concentrations of antimicrobial agents, and the minimal inhibitory concentration (MIC) was expressed in term of μg/ml after incubation at 37° C. for 20 hours.

MIC, 0.05 µg/mL:
Nc1ccnc(/C(=N/OC2CCCC2)C(=O)NC2C(=O)N3C(C(=O)[O-])=C(C[n+]4ccccc4)CSC23)n1 (stereo not drawn) [Compound A, 7-[2-Cyclopentyloxyimino-2-(4-aminopyrimidin-2-yl)acetamido]-3-(1-pyridiniomethyl)-3-cephem-4-carboxylate (syn isomer)]
CSCO/N=C(\C(=O)NC1C(=O)N2C(C(=O)[O-])=C(C[n+]3ccccc3)CSC12)c1nccc(N)n1 (stereo not drawn) [Compound B, 7-[2-Methylthiomethoxyimino-2-(4-aminopyrimidin-2-yl)acetamido]-3-(1-pyridiniomethyl)-3-cephem-4-carboxylate (syn isomer)]
CCO/N=C(\C(=O)NC1C(=O)N2C(C(=O)[O-])=C(C[n+]3ccccc3)CSC12)c1nccc(N)n1 (stereo not drawn) [Compound C, 7-[2-Ethoxyimino-2-(4-aminopyrimidin-2-yl)acetamido]-3-(1-pyridiniomethyl)-3-cephem-4-carboxylate (syn isomer)]
C#CCO/N=C(\C(=O)NC1C(=O)N2C(C(=O)[O-])=C(C[n+]3ccccc3)CSC12)c1nccc(N)n1 (stereo not drawn) [Compound D, 7-[2-Propargyloxyimino-2-(4-aminopyrimidin-2-yl)acetamido]-3-(1-pyridiniomethyl)-3-cephem-4-carboxylate (syn isomer)]
